Values after ≈ are worked out from the molar mass of the structure shown. Read-outs that look alike come from different tables or passages of the source.
Experiments:
Format in all cases: physicochemical
[1] = Conversion to hydrate risk: slurry in 5% SLS aqueous solution seeded with 5% hydrate seeds, PXRD; conditions: 20 mg/mL in 5% SLS aqueous solution, 24 hours
Method: Slurry experiments in water containing 5% SLS were used to assess the risk of form conversion during wet granulation. Typical wet granulation conditions include drying at 60 to 70° C. for 1.5 to 2 hours.
Slurries containing 20 mg/mL of either Form 1 or Form 2 in 5% sodium lauryl sulfate (SLS) aqueous solution were seeded with 5% hydrate seeds and monitored for form change with PXRD over 24 hours at room temperature and at 80° C.

[2] = Slurry form-conversion experiments in organic solvents (relative thermodynamic stability)
Excerpt: Form 1 and Form 2 are monotropically related.
This is evidence that Form 1 is more thermodynamically stable than Form 2.

[3] = Solubility in 7/3 v/v toluene/MeOH
[4] = Storage stability (processability assessment), 12 months
Excerpt: There is a risk of Form 2 conversion to hydrate at the typical wet granulation temperature when seeds of hydrate are present.

[5] = 40° C./75% relative humidity (RH)

SMILES | Hydrate peak growth (PXRD) ([1]; 80° C.) | Hydrate peak growth (PXRD) ([1]; room temperature) | Relative thermodynamic stability ([2]; Form 1 versus Form 2, monotropically related) | Form after slurry ([2]; slurried in MeOH, 3 weeks, room temperature) | solubility ([3]; 25 °C, organic solvent or mixture, 25 °C, read-out: Solubility) [µg/mL] | solubility ([3]; 40 °C, organic solvent or mixture, 40 °C, read-out: Solubility) [µg/mL] | solubility ([3]; 60 °C, organic solvent or mixture, 60 °C, read-out: Solubility) [µg/mL] | Physical and chemical stability on storage [4, 5] | Physical and chemical stability on storage ([4]; 55° C.) | Form conversion in slurry seeded with Form 1 ([2]; 2-Me-THF, Ethyl Acetate, MeOH or MeOH/toluene (70:30 v/v), 50° C., seeded with Form 1 at 14 days, 28 days total) | Form conversion in slurry ([2]; Ethyl Acetate and Isopropyl Acetate, 25° C., after 28 days) | Form conversion in competitive slurry ([2]; ~10 mg each of Form 1 and Form 2 in 1 mL MeOH, 50° C., after 4 days) | solubility ([3]; 25 °C) [µg/mL] | solubility ([3]; 40 °C) [µg/mL] | solubility ([3]; 60 °C) [µg/mL] | Relative thermodynamic stability ([2]; in aqueous solutions)
COc1cc(Nc2nn([C@H]3COCC[C@@H]3C#N)cc2C(N)=O)cc(F)n1 [Form 1, 1-[(3R,4S)-4-cyanotetrahydropyran-3-yl]-3-[(2-fluoro-6-methoxy-4-pyridyl)amino]pyrazole-4-carboxamide] | No hydrate peak growth observed | No hydrate peak growth observed | more stable than Form 2 | remained as Form 1 | 3400 (≈ 9.44 mM) | 6600 (≈ 18.3 mM) | 12500 (≈ 34.7 mM) | physically and chemically stable | physically and chemically stable |  |  |  |  |  |  | 
COc1cc(Nc2nn([C@H]3COCC[C@@H]3C#N)cc2C(N)=O)cc(F)n1 [Form 2, 1-[(3R,4S)-4-cyanotetrahydropyran-3-yl]-3-[(2-fluoro-6-methoxy-4-pyridyl)amino]pyrazole-4-carboxamide] | no hydrate peak growth was observed | hydrate peak growth was observed |  |  |  |  |  | physically and chemically stable | physically and chemically stable | full or conversion to Form 1 | Partial conversion | full conversion to Form 1 | 4700 (≈ 13 mM) | 9300 (≈ 25.8 mM) | 15600 (≈ 43.3 mM) | 
COc1cc(Nc2nn([C@H]3COCC[C@@H]3C#N)cc2C(N)=O)cc(F)n1 [Hydrate, 1-[(3R,4S)-4-cyanotetrahydropyran-3-yl]-3-[(2-fluoro-6-methoxy-4-pyridyl)amino]pyrazole-4-carboxamide] |  |  |  |  |  |  |  |  |  |  |  |  |  |  |  | most stable form in aqueous solutions

— patent publication US12018020B2, “Crystalline forms of 1-[(3R,4S)-4-cyanotetrahydropyran-3-yl]-3-[(2-fluoro-6-methoxy-4-pyridyl)amino]pyrazole-4-carboxamide” (Intervet Inc., priority 2018, dated 2024)
